Measured values from PubChem BioAssay (NCI).
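Briefly, cells in 96-well plates were exposed to five compound concentrations for 48 h, and endpoints were estimated by linear interpolation. The concentration for 50% growth inhibition is given as GI50. Definition used: TGI = concentration required for complete inhibition of growth.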

Columns and labels:
Assay in all cases: NCI anticancer screen, dose series, 48 h
NCI-H226 lung = system: NCI-H226 lung
HCT-116 colon = system: HCT-116 colon
SK-MEL-28 melanoma = system: SK-MEL-28 melanoma
A549 NSCLC = system: A549 NSCLC
NCI-H23 lung = system: NCI-H23 lung
A498 renal = system: A498 renal
NCI-H460 lung = system: NCI-H460 lung
OVCAR-5 ovarian = system: OVCAR-5 ovarian
SN12C renal = system: SN12C renal
UACC-62 melanoma = system: UACC-62 melanoma
HOP-92 NSCLC = system: HOP-92 NSCLC
SF-268 CNS = system: SF-268 CNS
RPMI-8226 leukemia = system: RPMI-8226 leukemia
HOP-62 NSCLC = system: HOP-62 NSCLC
SF-539 CNS = system: SF-539 CNS

Compound | TGI (NCI-H226 lung) [µM] | TGI (HCT-116 colon) [µM] | TGI (SK-MEL-28 melanoma) [µM] | TGI (A549 NSCLC) [µM] | TGI (NCI-H23 lung) [µM] | TGI (A498 renal) [µM] | TGI (NCI-H460 lung) [µM] | TGI (OVCAR-5 ovarian) [µM] | TGI (SN12C renal) [µM] | TGI (UACC-62 melanoma) [µM] | TGI (HOP-92 NSCLC) [µM] | TGI (SF-268 CNS) [µM] | TGI (RPMI-8226 leukemia) [µM] | TGI (HOP-62 NSCLC) [µM] | TGI (SF-539 CNS) [µM] | GI50 (HCT-116 colon) [µM] | GI50 (A549 NSCLC) [µM] | GI50 (NCI-H23 lung) [µM] | GI50 (HOP-92 NSCLC) [µM] | GI50 (SF-539 CNS) [µM]
COc1ccc(C)cc1NC(=S)N/N=C/c1ccco1 | > 100 | > 100 | > 100 | > 100 | > 100 | > 100 | > 100 | > 100 | > 100 | > 100 | > 100 | > 100 | 71.8 | > 100 | > 100 |  |  |  |  | 
CCOC(=O)C1=C(C)N(Cc2ccccc2)C2(O)C=CC(=O)C3C(=O)N(c4ccccc4)C(=O)C132 (stereo unspecified) | 5.7 | 2.49 | 3.54 | 10.4 | 5.36 | 28.1 | 4.77 | 9.85 | 10.6 | 4.01 | 7.96 | 7.81 | 3.1 | 5.52 | 3.45 |  |  |  |  | 
C=C1C(=O)OC2/C=C(\CO)C3OC3C3OC3(C)CC(OC(=O)/C(=C/C)COC(C)=O)C12 (stereo unspecified) | 40.8 | 2.96 | 3.72 | 36.9 | 21.7 | 27.7 | 28.4 | 28.7 | 10.9 | 6.2 | 4.35 | 27.1 | > 100 | 40.4 | 7.38 |  |  |  |  | 
COc1cccc(/C=N/[N+](C)(C)C)c1O | > 10 | > 10 | > 10 | > 10 | > 10 | > 10 | > 10 | > 10 | > 10 | > 10 |  | > 10 | > 10 | > 10 | > 10 |  |  |  |  | 
O=C1Nc2ccccc2C1(O)Cc1ccccn1 (stereo unspecified) | > 100 | > 100 | > 100 | > 100 | > 100 | > 100 | > 100 | > 100 | > 100 | > 100 | > 100 | > 100 | > 100 | > 100 |  |  |  |  |  | 
O=c1c2cc([N+](=O)[O-])ccc2[nH]n1Cc1ccccc1Cl | > 100 | > 100 | > 100 | > 100 | > 100 | > 100 | > 100 | > 100 | > 100 | > 100 | 93.9 | > 100 | 95.2 | > 100 | > 100 |  |  |  |  | 
CSc1nc2c(ncn2C2OC(CO)C(O)C(O)C2O)c(=O)n1C (stereo unspecified) | > 100 | > 100 | > 100 | > 100 | > 100 | > 100 | > 100 | > 100 | > 100 | > 100 | > 100 | > 100 | > 100 | > 100 | > 100 |  |  |  |  | 
COc1cc2c(cc1OCCCN1CCOCC1)N=C[C@@H]1CCCN1C2=O | 65.9 | 54.3 | 29.1 | > 100 |  | 30.1 | > 100 | 59.9 | > 100 | 29.2 | 7.4 | > 100 | 5.83 | 62.8 | 22.3 |  |  |  |  | 
Nc1nc2cc(COc3ccc(C(=O)O)cc3)ccc2nc1-c1ccccc1 | > 10 |  | > 10 | > 10 | > 10 |  | > 10 | > 10 | > 10 | > 10 | > 10 | > 10 | > 10 | > 10 | > 10 |  |  |  |  | 
O=C1C=CC2(C=C1)O[C@H](CCc1ccccc1)[C@@H](CCc1ccccc1)O2 | > 100 | > 100 | > 100 | > 100 | > 100 | > 100 | > 100 | > 100 | > 100 | > 100 | 94.3 | > 100 | > 100 | > 100 | > 100 |  |  |  |  | 
O=C(O)C(C1NCCS1)N1C(=O)c2ccccc2C1=O (stereo unspecified) | > 100 | > 100 | > 100 | > 100 | > 100 | > 100 | > 100 | > 100 | > 100 | > 100 | > 100 | > 100 | > 100 | > 100 | > 100 |  |  |  |  | 
O=C1Sc2sc(=S)sc2SC1c1ccccc1 (stereo unspecified) | > 100 | > 100 | > 64.8 | > 100 | > 100 | > 100 | > 100 | > 100 | > 100 | 57.2 | > 82.4 | > 100 | > 100 | > 100 | > 100 |  |  |  |  | 
Nc1nc(N)c2ncn(Cc3ccccc3CO)c2n1 | > 100 | > 100 | > 100 | > 100 | > 100 | > 100 | > 100 | > 100 | > 100 | > 100 | > 100 | > 100 | > 100 | > 100 | > 100 |  |  |  |  | 
Cc1ccnn1CCc1ccc(Cl)cc1Cl |  | > 100 | > 100 | > 100 | > 100 |  | > 100 | > 100 | > 100 | 29.1 |  | > 100 | 38.2 | 32.5 | 49.6 |  |  |  |  | 
Cc1ccc(C(=O)c2[nH]c(NCc3ccccc3)c(C(=S)Nc3ccccc3)c2N)cc1 | 32.3 | 15.2 | 9.97 | 22.1 | 27.1 | 31.6 | 18.8 | 27 | 28.8 | 25.2 | 18.9 | 28.8 | 5 | 29.2 | 5.63 |  |  |  |  | 
COc1cc2c(/C=C3/C(=O)Nc4cc(C)c(O)cc43)c(Cl)[nH]c2cc1C | 23.6 | 8.84 | 18.9 | 20.2 | 5.87 | 43.2 | 8.89 | 15.6 | 6.07 | 8.77 | > 100 | 31.9 | 4.44 | 10.9 | 5.93 |  |  |  |  | 
C=C1C(=O)OC2/C=C(CO)/C=C\C3OC3(C)CC(OC(=O)/C(C)=C/COC(C)=O)C12 (stereo unspecified) | 27.7 | 2.83 | 3.26 | 28.5 | 8.53 | 20.6 | 15.3 | 26.9 | 5.63 | 4.96 | 5.94 | 15.4 | 4.33 | 35.5 | 4.39 |  |  |  |  | 
CS(C)(=O)=Nn1c(=O)n2n(c1=O)[C@H]1CC[C@@H]2C1 | > 100 |  | > 100 | > 100 | > 100 | > 100 | > 100 | > 100 |  | > 100 | > 100 | > 100 | > 100 | > 100 | > 100 |  |  |  |  | 
O=C(c1ccsc1)c1nccc2c1cnc1ccccc12 | > 100 | > 100 | > 100 | > 100 | > 100 | > 100 | > 100 | > 100 | > 100 | > 100 | > 100 | > 100 | > 100 | > 100 | > 100 |  |  |  |  | 
COc1ccc2[nH]c(=O)cc(C)c2c1[N+](=O)[O-] | > 100 | > 100 | > 100 | > 100 | > 100 | > 100 | > 100 | > 100 | > 100 | > 100 | > 100 | > 100 | > 100 | > 100 | > 100 |  |  |  |  | 
COc1cnc2oc3ccc(O)cc3c2c1-c1ccccc1 |  | 45 | > 100 | > 100 | > 100 | > 100 | > 100 | 68.2 | > 100 |  | > 100 | > 100 | > 100 | > 100 | > 100 |  |  |  |  | 
O=C(N/N=C/c1cc(Cl)cc(Cl)c1[O-])c1ccccc1O.O=C(N/N=C/c1cc(Cl)cc(Cl)c1[O-])c1ccccc1O.[Mn+2] | 6.59 | 13.8 | 12.1 | 11.6 | 6.31 |  |  | 17.4 |  | 0.804 | 3.33 | 11.5 |  |  | 4.51 | 0.423 | 0.377 | 0.301 | 0.429 | 0.459
COc1ccc(C(=O)c2[nH]c(Nc3cc(C)ccn3)c(C(=S)Nc3ccccc3)c2N)cc1 | 47.3 | 50.6 | 34 | > 100 | 72.6 | 33.1 | 31.5 | 74.1 | 39.2 | 26.7 |  | 68.2 | 37.3 | 72.2 | 35.8 |  |  |  |  | 
CC1=CC2=C(C=O)C(=O)[C@](C)(O)[C@@H](O)C2=CO1 | 65.4 | > 59.9 | > 78.1 | > 90.8 | > 100 | 73.5 | > 100 | > 100 | > 100 | 71.5 | > 100 | > 69.4 | 47.1 | 69 | 97.5 |  |  |  |  | 
CC(C)(C(=O)N(C(=O)N1CCN(c2ccccc2)CC1)S(=O)(=O)c1ccccc1)c1ccc(Cl)cc1 | > 100 | > 100 | > 100 | > 100 | > 100 | 80.8 | > 100 | > 100 | > 100 | > 100 | 53.6 | > 100 | > 100 | > 100 | > 100 |  |  |  |  | 
COc1cc(C2c3cc4c(cc3[C@@H](Nc3cnc5ccccc5c3)C3COC(=O)[C@H]23)OCO4)cc(OC)c1O (stereo partly specified) | 1.23 | 2.26 | 3.85 | 0.789 | 2.02 | 1.38 | 0.397 | 2.25 |  | 2.06 | 2.81 | 3.9 | 1.9 | 0.481 | 0.82 |  |  |  |  | 
